Laboratory results published in patent publication US20130295055A1 (priority 2011, published 2013).
Where two headings read alike, the source gives them in different places.

Columns and labels:
Assay type in all cases: cell-based
[1] = system: Standard strain E. coli; assay: Sterilization effectiveness on E. coli (number of bacteria over time)
[2] = system: Standard strain Listeria; assay: Sterilization effectiveness on Listeria (number of bacteria over time)
[3] = system: Avian influenza virus AIV0028 (H9N2); details: Soft Water (Distilled Water)
[4] = system: Salmonella typhimurium ATCC 19585 and Salmonella typhimurium ATCC 43174; assay: Sterilization effectiveness on Salmonella (number of bacteria over time)
Protocol: Inhibitory effect was evaluated by measuring total numbers of bacteria over time, and the number of bacteria was expressed as log10 CFU/ml.
Standard strains Salmonella typhimurium ATCC 19585 and Salmonella typhimurium ATCC 43174 were purchased from American Type culture collection, and were incubated in Rappaport-Vassiliadis Soya Peptone Broth (CM0866, Oxoid, the United Kingdom) in a bacterial incubator at 37° C. for 24 hours. Total number of bacteria was measured by diluting strains at stationary phase to 6 to 7 log(cfu/mL).
0.2% peptone water was used as a diluent, and the smeared plate medium was incubated in a 37° C. bacterial incubator for 24 hours, and the number of white single colony was counted. Evaluation was carried out with the average of triplicate.
Malic acid was added to be 0.5%, 1.0%, 2.0%, respectively, to the prepared single colony of Salmonella, and the inhibitory effect on Salmonella over time was examined.

Compound: O=C(O)CC(O)(CC(=O)O)C(=O)O [SAL + BROTH (CA 1.0%), citric acid]
- number of E. coli bacteria ([1]; 0 min): 8.72 log10 CFU/ml
- number of E. coli bacteria ([1]; 10 min, listed as EC + Broth (CA 1.0%)): 8.71 log10 CFU/ml
- number of E. coli bacteria ([1]; 20 min, listed as EC + Broth (CA 1.0%)): 8.65 log10 CFU/ml
- number of E. coli bacteria ([1]; 30 min, listed as EC + Broth (CA 1.0%)): 8.70 log10 CFU/ml
- number of E. coli bacteria ([1]; 60 min, listed as EC + Broth (CA 1.0%)): 8.71 log10 CFU/ml
- number of Listeria bacteria ([2]; 0 min): 8.62 log10 CFU/ml
- number of Listeria bacteria ([2]; 10 min, listed as LIS + BROTH (CA 1.0%)): 8.47 log10 CFU/ml
- number of Listeria bacteria ([2]; 20 min, listed as LIS + BROTH (CA 1.0%)): 8.48 log10 CFU/ml
- number of Listeria bacteria ([2]; 30 min, listed as LIS + BROTH (CA 1.0%)): 8.41 log10 CFU/ml
- number of Listeria bacteria ([2]; 60 min, listed as LIS + BROTH (CA 1.0%)): 8.42 log10 CFU/ml

Compound: O=C(O)CC(O)(CC(=O)O)C(=O)O [Citric Acid, citric acid]
- Avian Influenza Titer ([3]; Citric Acid Concentration 2%, Dilution Rate 1:12.5): 1.25 log 10
- Avian Influenza Titer ([3]; Citric Acid Concentration 2%, Dilution Rate 1:25): 2.00 log 10
- Avian Influenza Titer ([3]; Citric Acid Concentration 4%, Dilution Rate 1:50): 2.00 log 10
- Avian Influenza Titer ([3]; Citric Acid Concentration 6%, Dilution Rate 1:50): 2.00 log 10
- Avian Influenza Titer ([3]; Citric Acid Concentration 8%, Dilution Rate 1:50): 0.75 log 10

Compound: O=C(O)CC(O)C(=O)O (centres unmarked) [SAL + BROTH (MA 1.0%), malic acid]
- number of Salmonella bacteria ([4]; 0 min): 9.02 log10 CFU/ml
- number of Salmonella bacteria ([4]; 10 min): 9.03 log10 CFU/ml
- number of Salmonella bacteria ([4]; 20 min): 9.04 log10 CFU/ml
- number of Salmonella bacteria ([4]; 30 min): 9.04 log10 CFU/ml
- number of Salmonella bacteria ([4]; 60 min): 8.88 log10 CFU/ml
- number of E. coli bacteria ([1]; 0 min): 8.61 log10 CFU/ml
- number of E. coli bacteria ([1]; 10 min, listed as EC + Broth (MA 1.0%)): 8.78 log10 CFU/ml
- number of E. coli bacteria ([1]; 20 min, listed as EC + Broth (MA 1.0%)): 8.74 log10 CFU/ml
- number of E. coli bacteria ([1]; 30 min, listed as EC + Broth (MA 1.0%)): 8.77 log10 CFU/ml
- number of E. coli bacteria ([1]; 60 min, listed as EC + Broth (MA 1.0%)): 8.94 log10 CFU/ml
- number of Listeria bacteria ([2]; 0 min): 8.67 log10 CFU/ml
- number of Listeria bacteria ([2]; 10 min, listed as LIS + BROTH(MA 1.0%)): 8.69 log10 CFU/ml
- number of Listeria bacteria ([2]; 20 min, listed as LIS + BROTH(MA 1.0%)): 8.60 log10 CFU/ml
- number of Listeria bacteria ([2]; 30 min, listed as LIS + BROTH(MA 1.0%)): 8.60 log10 CFU/ml
- number of Listeria bacteria ([2]; 60 min, listed as LIS + BROTH(MA 1.0%)): 8.59 log10 CFU/ml

Compound: O=C(O)CC(O)(CC(=O)O)C(=O)O [SAL + BROTH (CA 0.5%), citric acid]
- number of E. coli bacteria ([1]; 0 min): 8.72 log10 CFU/ml
- number of E. coli bacteria ([1]; 10 min, listed as EC + Broth (CA 0.5%)): 8.70 log10 CFU/ml
- number of E. coli bacteria ([1]; 20 min, listed as EC + Broth (CA 0.5%)): 8.64 log10 CFU/ml
- number of E. coli bacteria ([1]; 30 min, listed as EC + Broth (CA 0.5%)): 8.66 log10 CFU/ml
- number of E. coli bacteria ([1]; 60 min, listed as EC + Broth (CA 0.5%)): 8.67 log10 CFU/ml
- number of Listeria bacteria ([2]; 0 min): 8.62 log10 CFU/ml
- number of Listeria bacteria ([2]; 10 min, listed as LIS + BROTH (CA 0.5%)): 8.52 log10 CFU/ml
- number of Listeria bacteria ([2]; 20 min, listed as LIS + BROTH (CA 0.5%)): 8.48 log10 CFU/ml
- number of Listeria bacteria ([2]; 30 min, listed as LIS + BROTH (CA 0.5%)): 8.51 log10 CFU/ml
- number of Listeria bacteria ([2]; 60 min, listed as LIS + BROTH (CA 0.5%)): 8.39 log10 CFU/ml

Compound: O=C(O)CC(O)C(=O)O (centres unmarked) [SAL + BROTH (MA 0.5%), malic acid]
- number of Salmonella bacteria ([4]; 0 min): 9.02 log10 CFU/ml
- number of Salmonella bacteria ([4]; 10 min): 9.04 log10 CFU/ml
- number of Salmonella bacteria ([4]; 20 min): 9.05 log10 CFU/ml
- number of Salmonella bacteria ([4]; 30 min): 9.04 log10 CFU/ml
- number of Salmonella bacteria ([4]; 60 min): 9.09 log10 CFU/ml
- number of E. coli bacteria ([1]; 0 min): 8.61 log10 CFU/ml
- number of E. coli bacteria ([1]; 10 min, listed as EC + Broth (MA 0.5%)): 8.67 log10 CFU/ml
- number of E. coli bacteria ([1]; 20 min, listed as EC + Broth (MA 0.5%)): 8.66 log10 CFU/ml
- number of E. coli bacteria ([1]; 30 min, listed as EC + Broth (MA 0.5%)): 8.86 log10 CFU/ml
- number of E. coli bacteria ([1]; 60 min, listed as EC + Broth (MA 0.5%)): 8.79 log10 CFU/ml
- number of Listeria bacteria ([2]; 0 min): 8.67 log10 CFU/ml
- number of Listeria bacteria ([2]; 10 min, listed as LIS + BROTH (MA 0.5%)): 8.55 log10 CFU/ml
- number of Listeria bacteria ([2]; 20 min, listed as LIS + BROTH (MA 0.5%)): 8.61 log10 CFU/ml
- number of Listeria bacteria ([2]; 30 min, listed as LIS + BROTH (MA 0.5%)): 8.56 log10 CFU/ml
- number of Listeria bacteria ([2]; 60 min, listed as LIS + BROTH (MA 0.5%)): 8.58 log10 CFU/ml

Compound: O=C(O)CC(O)(CC(=O)O)C(=O)O [SAL + BROTH (CA 2.0%), citric acid]
- number of E. coli bacteria ([1]; 0 min): 8.72 log10 CFU/ml
- number of E. coli bacteria ([1]; 10 min, listed as EC + Broth (CA 2.0%)): 8.71 log10 CFU/ml
- number of E. coli bacteria ([1]; 20 min, listed as EC + Broth (CA 2.0%)): 8.67 log10 CFU/ml
- number of E. coli bacteria ([1]; 30 min, listed as EC + Broth (CA 2.0%)): 8.65 log10 CFU/ml
- number of E. coli bacteria ([1]; 60 min, listed as EC + Broth (CA 2.0%)): 8.61 log10 CFU/ml
- number of Listeria bacteria ([2]; 0 min): 8.62 log10 CFU/ml
- number of Listeria bacteria ([2]; 10 min, listed as LIS + BROTH (CA 2.0%)): 8.37 log10 CFU/ml
- number of Listeria bacteria ([2]; 20 min, listed as LIS + BROTH (CA 2.0%)): 8.37 log10 CFU/ml
- number of Listeria bacteria ([2]; 30 min, listed as LIS + BROTH (CA 2.0%)): 8.38 log10 CFU/ml
- number of Listeria bacteria ([2]; 60 min, listed as LIS + BROTH (CA 2.0%)): 8.40 log10 CFU/ml

Compound: O=C(O)CC(O)C(=O)O (centres unmarked) [SAL + BROTH (MA 2.0%), malic acid]
- number of Salmonella bacteria ([4]; 0 min): 9.02 log10 CFU/ml
- number of Salmonella bacteria ([4]; 10 min): 8.88 log10 CFU/ml
- number of Salmonella bacteria ([4]; 20 min): 8.73 log10 CFU/ml
- number of Salmonella bacteria ([4]; 30 min): 8.63 log10 CFU/ml
- number of Salmonella bacteria ([4]; 60 min): 7.50 log10 CFU/ml
- number of E. coli bacteria ([1]; 0 min): 8.61 log10 CFU/ml
- number of E. coli bacteria ([1]; 10 min, listed as EC + Broth (MA 2.0%)): 8.69 log10 CFU/ml
- number of E. coli bacteria ([1]; 20 min, listed as EC + Broth (MA 2.0%)): 8.68 log10 CFU/ml
- number of E. coli bacteria ([1]; 30 min, listed as EC + Broth (MA 2.0%)): 8.79 log10 CFU/ml
- number of E. coli bacteria ([1]; 60 min, listed as EC + Broth (MA 2.0%)): 8.63 log10 CFU/ml
- number of Listeria bacteria ([2]; 0 min): 8.67 log10 CFU/ml
- number of Listeria bacteria ([2]; 10 min, listed as LIS + BROTH(MA 2.0%)): 8.51 log10 CFU/ml
- number of Listeria bacteria ([2]; 20 min, listed as LIS + BROTH(MA 2.0%)): 8.62 log10 CFU/ml
- number of Listeria bacteria ([2]; 30 min, listed as LIS + BROTH(MA 2.0%)): 8.55 log10 CFU/ml
- number of Listeria bacteria ([2]; 60 min, listed as LIS + BROTH(MA 2.0%)): 8.61 log10 CFU/ml
